Data taken from US20090162280A1, “DETECTING SOLUBLE A-BETA” (GENERAL ELECTRIC COMPANY, priority 2007, published 2009).

Legend:
Aβ 1-40 fibrils = target: T1, Aβ 1-40 fibrils (Homo sapiens, UniProt P05067); experiment: SPA competition binding against 3H-PIB on A-beta fibrils; conditions: ~30 nM [3H]PIB, 10 μg Aβ 1-40 fibrils, unlabeled competitor
T1 construct: Lyophilized human beta-amyloid 1-40 peptide (Catalog number H-1194, Bachem); purchased Bachem H-1194 (unlabelled), H-5914 (biotinylated)
Description: For the ^3H-PIB binding reaction, 10 μg Aβ 1-40 fibrils were incubated with ˜30 nM [^3H]PIB in the presence of the unlabeled competitors in a total volume of 90 μl PBS. […] Non-specific binding wells contained PBS instead of fibril/oligomer. Assays were incubated at room temperature for 2 hr before addition of 10 μl YSi-streptavidin bead (0.13 mg). Assays were shaken for 1 min and then incubated overnight before counting the following morning using Microbeta.
(§2) Data analyses were performed using Sigma Plot or GraphPad Prism® version 4. Curves were fitted using non-linear regression. KD values and IC50 values were estimated from the binding curves.

[1] = target: T2, soluble A-beta oligomers (beta-amyloid 1-42 oligomer, 20% biotin) (Homo sapiens, UniProt P05067); experiment: SPA competition binding against tritium labeled 49b on soluble A-beta oligomers; conditions: for IC50: 130 nM 3H-49b, unlabeled competitor; for % inhibition: 50 uM unlabeled competitor, 130 nM tritium labeled-49b
T2 construct: 1 mg of human beta-amyloid 1-42 (H-1368, Bachem); purchased Bachem H-1368 (unlabelled), H-5642 (biotinylated)
Description: A. Soluble A-beta. 1 mg of human beta-amyloid 1-42 (H-1368, Bachem) and 500 uL of 1,1,1,3,3,3 hexafluoro-2-propanol (HFIP) (Aldrich) were chilled in separate bottles on ice for 30 minutes. Cold beta-amyloid 1-42 was solubilized with cold HFIP. The mixture was incubated for 1 hr at room temperature until it turned clear. The resulting solution was then dried to a film under vacuum. The film was dissolved again in cold HFIP and incubated another 1 hr at room temperature. The resulting solution was separated into aliquots in several microcentrifuge tubes. HFIP was removed under vacuum, and the films were stored at −20° C. until use. To prepare soluble oligomer, the film was dissolved in appropriate amount of dry DMSO (Sigma), and Ham's F12 media (Biosource) or PBS (Sigma, D8537) was added and incubated at 4° C. for 24 hours (final concentration of 200 uM or 0.9 mg/mL beta-amyloid in 2% DMSO). The tube containing the soluble oligomers was centrifuged at 13,000 rpm for 5 minutes, and its supernatant was transferred to a clean tube.
The three compounds shown in Table 1 were synthesized and evaluated for their ability to bind to soluble A-beta using the scintillation proximity assays (SPA) and/or AFM as described below. The percent inhibition reported was for 50 uM of the indicated unlabeled competitor and 130 nM of tritium labeled-49b.
(§1) For SPA and atomic force microscopy experiments, preparations of soluble oligomers and fibrils contained 20% biotinylated beta-amyloid 1-42 and 1-40, respectively (H-5642, H-5914, Bachem).
Lyophilized Streptavidin-Ysi beads (GE Healthcare) were reconstituted to 100 mg/mL in deionized water, and then further diluted in deionized water to give a suspension containing 0.25 mg/10 μL water. Unlabeled 49b, PIB and compound of formula III (353207) were dissolved in DMSO to give a final stock concentration of 15 mM.
For the saturation-binding assay, isotopic dilution of radiolabeled 49b with unlabeled 49b was performed. ^3H-49b was added to 500 uM of unlabeled 49b to a final concentration of 50 μCi/mL ^3H-49b. The probe solution was then serially diluted in PBS to give six solutions giving 6.6, 13.1, 26.3, 52.5, 105, or 210 uM in the final assay well. Each concentration of the probe solution was incubated with 12 μg beta-amyloid 1-42 oligomer (20% biotin) or 1-40 (20% biotin) fibrils in a total volume of 90 μL. Assays were incubated at room temp for 2 hrs before addition of 10 μL YSi-streptavidin (0.25 mg) SPA bead. Assays were set-up in triplicate in 96-well NBS plates (Costar). Assays were incubated overnight and counted the following morning. […] The specific activities of four probes were different, however the level of activity was the same at the concentrations where the probes were tested. […]

[2] = target: T2, soluble A-beta oligomers (beta-amyloid 1-42 oligomer, 20% biotin); experiment: SPA saturation / direct binding of tritium labeled probes to soluble A-beta oligomers
Description: For the saturation-binding assay, isotopic dilution of radiolabeled 49b with unlabeled 49b was performed. ^3H-49b was added to 500 uM of unlabeled 49b to a final concentration of 50 μCi/mL ^3H-49b. The probe solution was then serially diluted in PBS to give six solutions giving 6.6, 13.1, 26.3, 52.5, 105, or 210 uM in the final assay well. Each concentration of the probe solution was incubated with 12 μg beta-amyloid 1-42 oligomer (20% biotin) or 1-40 (20% biotin) fibrils in a total volume of 90 μL. Assays were incubated at room temp for 2 hrs before addition of 10 μL YSi-streptavidin (0.25 mg) SPA bead. Assays were set-up in triplicate in 96-well NBS plates (Costar). Assays were incubated overnight and counted the following morning. […] Assay conditions were the same as described in saturation binding assay.
as §2
A direct binding assay using tritium labeled 49b was performed against oligomers or fibrils by scintillation proximity assay (SPA). Beta-amyloid containing 20% biotin and tritiated 49b were incubated in solution for two hours prior to addition of the Ysi-Streptavidin beads.

1-42 fibrils = 1-42 fibrils (Homo sapiens, UniProt P05067); experiment: SPA binding of 3H-49b to 1-42 fibrils; conditions: same conditions used to measure binding to soluble oligomers
[3] = target: T3, beta-amyloid 1-40 fibrils (20% biotin) (Homo sapiens, UniProt P05067); experiment: SPA saturation binding of 3H-49b to 1-40 fibrils; conditions: same conditions as for soluble oligomers; compared with oligomers
T3 construct: Lyophilized human beta-amyloid 1-40 peptide (Catalog number H-1194, Bachem); purchased Bachem H-1194 (unlabelled), H-5914 (biotinylated)
Description: B. Insoluble A-beta (1-40) fibril formation: Lyophilized human beta-amyloid 1-40 peptide (Catalog number H-1194, Bachem) was solubilized with HFIP to produce a dry clear film following the process described above for beta-amyloid 1-42. The clear film of beta-amyloid 1-40 was diluted with 10 mM phosphate buffer, pH 7.4, containing 1 mM EDTA, such that final Aβ concentration was 0.5 mg/ml, then mixed briefly. The solution was incubated at 37° C. on an orbital shaker set at 200 rpm for 48 h. A cloudy solution was produced, and the fibril production was confirmed by measuring changes in fluorescence of Thioflavin T, as well as by atomic force microscopy and transmission electron microscopy. Fibrils were used immediately after their production was confirmed.
as §1
For the saturation-binding assay, isotopic dilution of radiolabeled 49b with unlabeled 49b was performed. ^3H-49b was added to 500 uM of unlabeled 49b to a final concentration of 50 μCi/mL ^3H-49b. The probe solution was then serially diluted in PBS to give six solutions giving 6.6, 13.1, 26.3, 52.5, 105, or 210 uM in the final assay well. […] Assays were incubated overnight and counted the following morning. […]

[4] = saturation binding with oligomers

T2 sequence (P05067 672-713): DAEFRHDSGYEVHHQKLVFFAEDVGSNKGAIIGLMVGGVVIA
T1 sequence (P05067 672-711): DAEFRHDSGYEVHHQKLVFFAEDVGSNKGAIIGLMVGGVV
Chain of 1-42 fibrils (P05067 672-713): as the sequence (P05067 672-713) above
T3 sequence (P05067 672-711): as the sequence (P05067 672-711) above

O=C(Nc1ccc(O)c(C(=O)O)c1)c1ccc(-c2ccc(C(=O)Nc3ccc(O)c(C(=O)O)c3)cc2)cc1 [Formula III]
competition of tritium labeled PIB binding to fibrils (in words) (Aβ 1-40 fibrils): did not compete | IC50 [1]: 1 to 7 µM | % inhibition [1]: 82%

O=Cc1ccc(-c2oc3ccccc3c2CO)o1 [Formula II, 2-(2-formyl-5-furanyl)-3-hydroxymethyl benzofuran]
Kd ([2]; 3H-49b isotopically diluted with unlabeled 49b, incubated with oligomers, read-out: binding constant (saturation binding)): 50 µM | specificity, oligomers over fibrils ([2]; direct binding of 3H-49b, oligomers versus fibrils): showed specificity to oligomers over fibrils | Bmax [2, 4]: 60-80 nmol/mg beta-amyloid | molar ratio probe:beta-amyloid at Bmax [2, 4]: 1 probe:3-4 beta-amyloid | competition of tritium labeled PIB binding to fibrils (in words) (Aβ 1-40 fibrils): not competed | affinity for 1-42 fibrils (1-42 fibrils): no measurable affinity could be determined | IC50 [1]: 60 µM | binding to 1-40 fibrils [3]: Much less binding was observed

CNc1ccc(-c2nc3ccc(O)cc3s2)cc1 [Formula I, 2-(4-methylamino)phenylbenzothiazol-6-ol, reference compound]
% inhibition [1]: 3%
